From the NIST ThermoML archive (doi:10.1021/je0603325)

Columns and labels:
[1] = 101 kPa, Liquid
[2] = molar heat capacity at constant pressure; conditions: 101 kPa, Liquid, Small sample (50 mg) DSC
[3] = xn = mol fraction of the nth substance listed; conditions: 101 kPa, Liquid, x2 = 0

BrCCBr [1,2-dibromoethane]
Conditions	mass density [kg/m3]	molar heat capacity at constant pressure [J/K/mol]	speed of sound [m/s]
[1], 292.84 K	–	–	1007.5
[1], 293.15 K	2178.77	–	–
[1], 298.15 K	2168.41	–	–
[1], 299.17 K	–	–	991.14
[1], 303.15 K	2157.94	–	–
[1], 303.37 K	–	–	980.18
[1], 308.15 K	2147.47	–	–
[1], 308.75 K	–	–	966.56
[1], 313.15 K	2136.96	–	–
[1], 314.45 K	–	–	952
[2], 293.15 K	–	136.87	–
[2], 294.15 K	–	136.9	–
[2], 295.15 K	–	136.95	–
[2], 296.15 K	–	136.99	–
[2], 297.15 K	–	137.02	–
[2], 298.15 K	–	137.04	–
[2], 299.15 K	–	137.09	–
[2], 300.15 K	–	137.11	–
[2], 301.15 K	–	137.15	–
[2], 302.15 K	–	137.2	–
[2], 303.15 K	–	137.25	–
[2], 304.15 K	–	137.29	–
[2], 305.15 K	–	137.32	–
[2], 306.15 K	–	137.39	–
[2], 307.15 K	–	137.42	–
[2], 308.15 K	–	137.49	–
[2], 309.15 K	–	137.53	–
[2], 310.15 K	–	137.6	–
[2], 311.15 K	–	137.65	–
[2], 312.15 K	–	137.71	–
[2], 313.15 K	–	137.77	–

CCCCCCC [heptane]
[1]
Conditions	mass density [kg/m3]
293.15 K	683.82
298.15 K	679.59
303.15 K	675.31
308.15 K	671.02
313.15 K	666.68

CCCCCCC [heptane] + BrCCBr
[3]
Conditions	mass density [kg/m3]
293.15 K	683.82
298.15 K	679.59
303.15 K	675.31
308.15 K	671.02
313.15 K	666.68
